Results published in ChEMBL document CHEMBL3046562, “Pharmacological Effects of Imidacloprid and Its Related Compounds on the Nicotinic Acetyicholine Receptor with Its Ion Channel from the Torpedo Electric Organ” (J Pestic Sci, 1995).
Active and inactive are the calls of the source. No cut-off for these calls is given here.

How the values were obtained:
[1] = target: Acetylcholine receptor subunit alpha (Torpedo californica) (UniProt P02710); experiment: Increase in [3H]PCP binding to nAChR in Torpedo nobiliana electric organs membranes by scintillation counting method; format: tissue-based; settings: Electric organ
Sequence of Acetylcholine receptor subunit alpha (Torpedo californica) (P02710 whole entry): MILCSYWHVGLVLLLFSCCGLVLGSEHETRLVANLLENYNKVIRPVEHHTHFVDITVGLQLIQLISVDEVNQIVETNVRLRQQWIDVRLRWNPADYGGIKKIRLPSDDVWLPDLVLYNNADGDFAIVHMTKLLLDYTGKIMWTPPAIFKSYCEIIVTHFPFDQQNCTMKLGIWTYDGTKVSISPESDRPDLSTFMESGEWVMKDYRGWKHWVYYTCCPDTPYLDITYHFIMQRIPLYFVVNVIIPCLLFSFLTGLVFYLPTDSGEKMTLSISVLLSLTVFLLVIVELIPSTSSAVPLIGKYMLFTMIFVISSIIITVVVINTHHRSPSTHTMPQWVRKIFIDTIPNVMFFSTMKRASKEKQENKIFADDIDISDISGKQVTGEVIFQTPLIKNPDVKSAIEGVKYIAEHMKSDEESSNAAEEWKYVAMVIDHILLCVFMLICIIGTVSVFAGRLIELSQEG

[2] = target: Acetylcholine receptor subunit alpha (Torpedo californica) (UniProt P02710); experiment: Increase in [3H]PCP binding to nAChR in Torpedo nobiliana electric organs membranes at 1 to 3 uM by scintillation counting method; format: tissue-based; settings: Electric organ
[3] = target: Acetylcholine receptor subunit alpha (Torpedo californica) (UniProt P02710); experiment: Displacement of [3H]PCP from nAChR in Torpedo nobiliana electric organs membranes at 300 uM by scintillation counting method; format: tissue-based; settings: Electric organ
[4] = target: Acetylcholine receptor subunit alpha (Torpedo californica) (UniProt P02710); experiment: Displacement of [3H]PCP from nAChR in Torpedo nobiliana electric organs membranes assessed as [3H]PCP binding level at 300 uM by scintillation counting method relative to untreated control; format: tissue-based; settings: Electric organ
[5] = target: Acetylcholine receptor subunit alpha (Torpedo californica) (UniProt P02710); experiment: Displacement of [3H]PCP from nAChR in Torpedo nobiliana electric organs membranes assessed as [3H]PCP binding level at 300 uM pre-treated with 0.5 uM alpha-bungarotoxin by scintillation counting method relative to untreated control; format: tissue-based; settings: Electric organ
[6] = target: Acetylcholine receptor subunit alpha (Torpedo californica) (UniProt P02710); experiment: Displacement of [3H]PCP from nAChR in Torpedo nobiliana electric organs membranes assessed as [3H]PCP binding level at 300 uM in presence of 100 uM carbachol by scintillation counting method relative to untreated control; format: tissue-based; settings: Electric organ
[7] = Displacement of [3H]alpha-BGT from nAChR in Torpedo nobiliana electric organs membranes by scintillation counting method
[8] = target: Acetylcholine receptor subunit alpha (Torpedo californica) (UniProt P02710); experiment: Displacement of [3H]alpha-BGT from nAChR in Torpedo nobiliana electric organs membranes at 300 uM by scintillation counting method; format: tissue-based; settings: Electric organ
[9] = target: Acetylcholine receptor subunit alpha (Torpedo californica) (UniProt P02710); experiment: Displacement of [3H]alpha-BGT from nAChR in Torpedo nobiliana electric organs membranes at 1000 uM by scintillation counting method; format: tissue-based; settings: Electric organ
[10] = target: Acetylcholine receptor subunit alpha (Torpedo californica) (UniProt P02710); experiment: Displacement of [3H]PCP from nAChR in Torpedo nobiliana electric organs membranes assessed as [3H]PCP binding level at 500 uM by scintillation counting method relative to untreated control; format: tissue-based; settings: Electric organ
[11] = target: Acetylcholine receptor subunit alpha (Torpedo californica) (UniProt P02710); experiment: Displacement of [3H]PCP from nAChR in Torpedo nobiliana electric organs membranes assessed as [3H]PCP binding level at 500 uM in presence of 100 uM carbachol by scintillation counting method relative to untreated control; format: tissue-based; settings: Electric organ
[12] = target: Acetylcholine receptor subunit alpha (Torpedo californica) (UniProt P02710); experiment: Displacement of [3H]PCP from nAChR in Torpedo nobiliana electric organs membranes at 1000 uM by scintillation counting method; format: tissue-based; settings: Electric organ
[13] = target: Acetylcholine receptor subunit alpha (Torpedo californica) (UniProt P02710); experiment: Displacement of [3H]PCP from nAChR in Torpedo nobiliana electric organs membranes assessed as [3H]PCP binding level at 1000 uM by scintillation counting method relative to untreated control; format: tissue-based; settings: Electric organ
[14] = target: Acetylcholine receptor subunit alpha (Torpedo californica) (UniProt P02710); experiment: Displacement of [3H]PCP from nAChR in Torpedo nobiliana electric organs membranes assessed as [3H]PCP binding level at 1000 uM in presence of 100 uM carbachol by scintillation counting method relative to untreated control; format: tissue-based; settings: Electric organ
[15] = target: Acetylcholine receptor subunit alpha (Torpedo californica) (UniProt P02710); experiment: Displacement of [3H]PCP from nAChR in Torpedo nobiliana electric organs membranes assessed as [3H]PCP binding level at 1000 uM pre-treated with 0.5 uM alpha-bungarotoxin by scintillation counting method relative to untreated control; format: tissue-based; settings: Electric organ

In the case of `COc1cc2c3cc1Oc1cc(ccc1O)C[C@@H]1c4c(cc(OC)c(O)c4Oc4ccc(cc4)C[C@@H]3N(C)CC2)CC[N+]1(C)C`, the Activity [1] is reported as “Active”, the Activity [2] is reported as 160% and the inhibition [3] is reported as 91.3%.

Work on `O=[N+]([O-])/N=C1\NCCN1Cc1ccc(Cl)nc1` [IMIDACLOPRID] yielded an Activity [4] of 287%, an Activity [5] of 108% and an Activity [6] of 92.4%. It also gave an IC50 [7] of 1060 µM.

For `O=c1cccc2n1C[C@@H]1CNC[C@H]2C1`, the Activity [1] was “Active”.

`O=[N+]([O-])/C=C1\NCCN1Cc1ccc(Cl)nc1` showed an Activity [4] of 461%, an Activity [5] of 142% and an Activity [6] of 94.6%.

Compound `c1csc(C2(N3CCCCC3)CCCCC2)c1` has an inhibition [8] of 0.91%.

Work on `C/C(=N\C#N)N(C)Cc1ccc(Cl)nc1` yielded an Activity [4] of 221%, an Activity [5] of 104% and an Activity [6] of 93.3%.

`c1ccc(C2(N3CCCCC3)CCCCC2)cc1` gave an inhibition [9] of 3.2%.

`CCN(Cc1ccc(Cl)nc1)/C(=C/[N+](=O)[O-])NC` showed an Activity [10] of 142%, an Activity [11] of 607% and an inhibition [8] of 2.39%.

`CN1[C@@H](CC(=O)c2ccccc2)CCC[C@H]1C[C@H](O)c1ccccc1` gave an inhibition [9] of 0%.

With `CN1CCC[C@@H]1c1cccnc1` the Activity [1] was “Active”.

With `c1cncc([C@@H]2CCCCN2)c1` [ANABASINE] the Activity [1] was “Active” and the IC50 [7] was 193 µM.

Work on `CNC1(C)C2CCC(C2)C1(C)C` (configuration not stated) yielded an inhibition [9] of 0%.

With `O=C1N(Cc2ccccc2)C2C[S+]3CCCC3C2N1Cc1ccccc1` (configuration not stated) the inhibition [12] was 59.5%, the inhibition [3] was 5.93% and the inhibition [8] was 5.7%.

In the case of `CN1CCC[C@H]1c1cccnc1` [NICOTINE], the Activity [1] is reported as “Active” and the IC50 [7] is reported as 23.1 µM.

For `CN(C)CCCN1c2ccccc2Sc2ccc(Cl)cc21`, the inhibition [9] was 7.15%.

In the case of `C[N+](C)(C)CCOC(N)=O` [CARBACHOL], the Activity [1] is reported as “Active” and the IC50 [7] is reported as 7.64 µM.

In the case of `CNC1(c2ccccc2Cl)CCCCC1=O` (configuration not stated), the inhibition [9] is reported as 0.1%.

In the case of `CSCCN1CCN/C1=C\[N+](=O)[O-]`, the Activity [4] is reported as 181% and the Activity [6] is reported as 830%.

In the case of `C[N+]1(C)CCN(c2ccccc2)CC1`, the Activity [1] is reported as “Active”.

In the case of `CN(C)C1CSSC1`, the Activity [1] is reported as “Active”.

`O=[N+]([O-])C=C1NCCCS1` showed an Activity [13] of 439%, an Activity [14] of 762% and an IC50 [7] of 1590 µM. The Activity [15] was 112%.

With `CCC[C@H]1CCCCN1` the Activity [1] was “Active”.
